In patent publication US20030207812A1, “Cd45 inhibitors” (priority 2002, published 2003):
Where two headings read alike, the source gives them in different places.

Columns and labels:
[1] = tested on: T-cell lymphoblasts; assay: Cytotoxicity assay (Calcein-AM uptake); conditions: PHA-expanded T-cell lymphoblasts, overnight incubation, Calcein-AM
[2] = tested on: T cells (PBMC); assay: cells; format: cell-based, human; conditions: human PBMC, OKT3 30 ng/mL, [3H]thymidine; read-out: T cell prolif. IC50
[3] = target: T1, CD45 (Homo sapiens, UniProt P08575); assay: Phosphatase assay using pNPP as substrate; format: biochemical; conditions: read-out: pNPP IC50
T1 construct: incubating the cytosolic portion of CD45 with the compounds and p-nitrophenyl phosphate (pNPP); purchased BIOMOL (Plymouth Meeting, Pa.)
T1 sequence (P08575 599-1306 limits assumed): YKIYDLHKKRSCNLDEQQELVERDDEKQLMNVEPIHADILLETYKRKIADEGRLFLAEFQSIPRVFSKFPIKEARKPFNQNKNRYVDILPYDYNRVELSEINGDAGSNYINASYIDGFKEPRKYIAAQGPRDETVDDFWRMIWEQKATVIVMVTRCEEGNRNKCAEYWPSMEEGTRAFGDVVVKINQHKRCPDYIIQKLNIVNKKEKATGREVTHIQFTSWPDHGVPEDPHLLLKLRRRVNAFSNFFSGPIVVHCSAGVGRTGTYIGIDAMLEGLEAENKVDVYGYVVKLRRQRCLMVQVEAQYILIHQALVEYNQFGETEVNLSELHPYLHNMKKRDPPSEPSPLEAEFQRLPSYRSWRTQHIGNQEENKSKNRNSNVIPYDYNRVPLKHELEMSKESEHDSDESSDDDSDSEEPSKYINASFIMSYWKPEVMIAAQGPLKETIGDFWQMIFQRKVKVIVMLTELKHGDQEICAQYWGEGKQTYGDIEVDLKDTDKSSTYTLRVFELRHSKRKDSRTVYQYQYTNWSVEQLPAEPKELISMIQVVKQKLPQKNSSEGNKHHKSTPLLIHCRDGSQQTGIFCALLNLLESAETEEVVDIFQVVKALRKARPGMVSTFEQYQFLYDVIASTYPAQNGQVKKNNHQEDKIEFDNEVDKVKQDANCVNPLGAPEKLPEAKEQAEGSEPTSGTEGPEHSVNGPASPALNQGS
Experimental: Phosphatase assay using pNPP as substrate:
CD45 enzyme was obtained from BIOMOL (Plymouth Meeting, Pa.). Phosphatase activity was assayed in a buffer containing final concentrations of 25 mM imidazole at pH 7.0, 50 mM NaCl, 2.5 mM ethylenediaminetetraacetic acid (“EDTA”), 5 mM dithiothreitol (“DTT”) and 10 μg/mL bovine serum albumin (“BSA”) using pNPP as a substrate.

[4] = target: T1, CD45; assay: Phosphatase assay using lck 10-mer as substrate; format: biochemical; conditions: pH 7.2, read-out: Ick IC50
Summary of the method: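 Enzyme incubated with lck phosphopeptide TEGQpYQPQP for 1.5 h at room temperature in 25 mM HEPES pH 7.2, 5 mM DTT, 10 μg/mL BSA, 5% DMSO final. Compounds tested from 30 to 0.01 μM. Released phosphate detected with malachite-type Green Reagent, absorbance at 620 nm after 30 min.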

[5] = tested on: T-cell lymphoblasts
[6] = in vitro; conditions: human
[7] = CD45 phosphatase, pNPP substrate, pH 7.0
[8] = CD45 phosphatase, lck carboxy-terminal peptide TEGQpYQPQP substrate

| IC50 [3, 7] [µM] | IC50 [4, 8] [µM] | Compound | CC50 [1] [µM] | IC50 [2] [µM] | CC50 [5] [µM] | IC50 ([3]; pH 7) [µM] | IC50 [4] [µM] | CC50 [6] [µM] |
| --- | --- | --- | --- | --- | --- | --- | --- | --- |
| 0.7 | 6.9 | 8-(9,10-Dioxo-9,10-dihydro-phenanthren-3-ylcarbamoyl)-heptanoic Acid Methyl Ester [Example 78] | 28 | 1.3 | – | – | – | – |
| 0.8 | 5.2 | CCCC(=O)Nc1ccc2c(c1)-c1ccccc1C(=O)C2=O [Example 9, N-(9,10-Dioxo-9,10-dihydro-phenenathren-3-yl)-butyramide] | 9.1 | 0.8 | – | – | – | – |
| 2.8 | 11.6 | O=C1C(=O)c2ccc(NC(=O)C(Cl)(Cl)Cl)cc2-c2ccccc21 [Example 11, 2,2,2-Trichloro-N(9,10-dioxo-9,10-dihydro-phenanthren-3-yl)-acetamide] | > 30 | 6.5 | – | – | – | – |
| 4.49 | > 30 | O=C1C(=O)c2c(-c3ccc4ccccc4c3)cccc2-c2ccccc21 [Example 19, 1 -Naphthalen-2-yl-phenanthrene-9,10-dione] | – | 1.6 | 4.4 | – | – | – |
| 1.6 | > 30 | COC(=O)CCCCCCCCC(=O)Nc1ccc2c(c1)-c1ccccc1C(=O)C2=O [Example 79, 9-(9,10-Dioxo-9,10-dihydro-phenanthren-3-ylcarbamoyl)-nionanoic Acid Methyl Ester] | > 30 | 0.5 | – | – | – | – |
| – | – | O=C1C(=O)c2ccccc2-c2ccccc21 [Example 106, 9,10-Phenanthrenedione] | – | 0.3 | – | 0.7 | 3.1 | 1.3 |
